# Source: patent US10227350B2 (Gilead Sciences, Inc., priority 2016, dated 2019)
# Target: PI3Kβ (Homo sapiens (Human), UniProt P42338)
# Experiment: TR-FRET enzymatic activity assay, PI3Kβ
# Assay type: biochemical
# Details: 2× Km ATP, 2 μM PIP2, 30 minutes at 25° C., read-out: IC50-PIP-Beta
# Description: The compounds of formula (I) were characterized for their enzymatic activity against the PI3K isoforms. The activities were measured using a time-resolved fluorescence resonance energy transfer (TR-FRET) assay. TR-FRET monitored the formation of 3,4,5-inositol triphosphate molecule that competed with fluorescently labeled PIPS for binding to the GRP-1 pleckstrin homology domain protein.
# Class I PI3K isoforms were expressed and purified as heterodimeric recombinant proteins. All assay reagents and buffers for the TR-FRET assay were purchased from Millipore. […] The compounds were added to the assay solution and incubated for 30 minutes at 25° C.
# PI3Kβ, sequence (P42338 whole entry): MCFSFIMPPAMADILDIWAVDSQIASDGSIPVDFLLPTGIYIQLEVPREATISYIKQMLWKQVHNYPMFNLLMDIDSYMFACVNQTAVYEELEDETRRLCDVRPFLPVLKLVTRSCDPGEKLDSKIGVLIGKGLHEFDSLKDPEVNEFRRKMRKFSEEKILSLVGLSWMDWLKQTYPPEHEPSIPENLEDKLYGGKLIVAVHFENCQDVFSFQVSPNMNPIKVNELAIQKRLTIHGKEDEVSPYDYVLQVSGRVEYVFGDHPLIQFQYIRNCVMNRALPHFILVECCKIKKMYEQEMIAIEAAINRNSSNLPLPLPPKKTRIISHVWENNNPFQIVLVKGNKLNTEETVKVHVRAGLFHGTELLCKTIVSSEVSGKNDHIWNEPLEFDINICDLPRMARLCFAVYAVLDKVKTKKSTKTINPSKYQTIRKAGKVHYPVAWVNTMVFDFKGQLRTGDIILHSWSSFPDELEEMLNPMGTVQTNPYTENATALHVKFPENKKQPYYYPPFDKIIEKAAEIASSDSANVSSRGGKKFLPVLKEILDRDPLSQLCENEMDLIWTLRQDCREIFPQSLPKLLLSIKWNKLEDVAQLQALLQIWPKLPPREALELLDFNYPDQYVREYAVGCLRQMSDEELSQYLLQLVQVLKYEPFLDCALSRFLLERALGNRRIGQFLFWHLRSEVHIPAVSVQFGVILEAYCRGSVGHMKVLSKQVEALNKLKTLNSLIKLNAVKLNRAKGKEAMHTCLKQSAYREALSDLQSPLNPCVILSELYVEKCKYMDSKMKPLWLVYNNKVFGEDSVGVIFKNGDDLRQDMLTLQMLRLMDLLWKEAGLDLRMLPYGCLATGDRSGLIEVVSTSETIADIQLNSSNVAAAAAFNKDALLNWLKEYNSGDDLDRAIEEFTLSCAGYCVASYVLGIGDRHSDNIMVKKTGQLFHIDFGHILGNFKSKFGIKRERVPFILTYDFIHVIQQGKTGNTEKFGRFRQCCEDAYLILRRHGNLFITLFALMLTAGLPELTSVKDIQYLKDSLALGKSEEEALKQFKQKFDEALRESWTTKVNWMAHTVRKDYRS
# PI3Kβ, sequence (P27986 whole entry partner): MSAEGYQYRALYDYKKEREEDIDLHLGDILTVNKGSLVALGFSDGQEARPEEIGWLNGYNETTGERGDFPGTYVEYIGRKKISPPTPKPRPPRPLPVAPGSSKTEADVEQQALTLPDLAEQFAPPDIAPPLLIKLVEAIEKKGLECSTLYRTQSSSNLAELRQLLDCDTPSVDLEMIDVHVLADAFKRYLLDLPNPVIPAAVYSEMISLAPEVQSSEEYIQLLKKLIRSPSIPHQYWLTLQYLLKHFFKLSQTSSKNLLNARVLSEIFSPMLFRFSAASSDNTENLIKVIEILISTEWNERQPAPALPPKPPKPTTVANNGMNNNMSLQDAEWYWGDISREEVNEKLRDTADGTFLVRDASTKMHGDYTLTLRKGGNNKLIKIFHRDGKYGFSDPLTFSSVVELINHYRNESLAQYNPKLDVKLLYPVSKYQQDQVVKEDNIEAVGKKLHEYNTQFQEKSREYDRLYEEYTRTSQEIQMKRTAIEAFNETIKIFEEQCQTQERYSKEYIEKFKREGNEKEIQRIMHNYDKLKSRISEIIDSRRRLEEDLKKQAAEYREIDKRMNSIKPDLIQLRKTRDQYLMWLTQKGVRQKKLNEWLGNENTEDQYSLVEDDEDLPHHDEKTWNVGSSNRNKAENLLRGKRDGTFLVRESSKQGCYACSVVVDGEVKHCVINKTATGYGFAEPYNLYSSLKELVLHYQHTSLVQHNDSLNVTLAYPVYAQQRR
row,IC50 [nM],SMILES
1,6,"Cc1nc2c(-c3nnc[nH]3)cc(-c3ccncc3)cc2n1-c1ccnc2c(F)ccc(F)c12 (atropisomer, axis not shown) [Example 139, 5,8-difluoro-4-(2-methyl-6-(pyridin-4-yl)-4-(4H-1,2,4-triazol-3-yl)-1H-benzo[d]imidazol-1-yl)quinoline]"
2,35,"Cc1nc2c(-c3nnc[nH]3)cc(-c3ccnc(N)c3F)cc2n1-c1ccnc2cc(F)cc(F)c12 (single isomer, unassigned) [Example 118]"
3,87,"Cc1nc2c(-c3nnc[nH]3)cc(-c3ccnc(N)c3F)cc2n1-c1ccnc2c(Cl)ccc(Cl)c12 (single isomer, unassigned) [Example 119, 4-(1-(5,8-dichloroquinolin-4-yl)-2-methyl-4-(4H-1,2,4-triazol-3-yl)-1H-benzo[d]imidazol-6-yl)-3-fluoropyridin-2-amine]"
4,4,"Cc1nc2c(-c3nnc[nH]3)cc(-c3ccnc(N)c3F)cc2n1-c1ccnc2c(Cl)ccc(Cl)c12 (single isomer, unassigned) [Example 120, 4-(1-(5,8-dichloroquinolin-4-yl)-2-methyl-4-(4H-1,2,4-triazol-3-yl)-1H-benzo[d]imidazol-6-yl)-3-fluoropyridin-2-amine]"
5,1,"Cc1nc2c(-c3nnc[nH]3)cc(-c3ccnc(C#N)c3)cc2n1-c1ccnc2c(Cl)ccc(Cl)c12 (single isomer, unassigned) [Example 121, 4-(1-(5,8-dichloroquinolin-4-yl)-2-methyl-4-(4H-1,2,4-triazol-3-yl)-1H-benzo[d]imidazol-6-yl)picolinonitrile]"
6,28,"Cc1nc2c(-c3nnc[nH]3)cc(-c3ccnc(C#N)c3)cc2n1-c1ccnc2c(Cl)ccc(Cl)c12 (single isomer, unassigned) [Example 122, 4-(1-(5,8-dichloroquinolin-4-yl)-2-methyl-4-(4H-1,2,4-triazol-3-yl)-1H-benzo[d]imidazol-6-yl)picolinonitrile]"
7,8,"Cc1nc2c(-c3nnc[nH]3)cc(-c3ccnc(C#N)c3)cc2n1-c1ccnc2c(F)ccc(Cl)c12 (single isomer, unassigned) [Example 123, 4-(1-(5-chloro-8-fluoroquinolin-4-yl)-2-methyl-4-(4H-1,2,4-triazol-3-yl)-1H-benzo[d]imidazol-6-yl)picolinonitrile]"
8,160,"Cc1nc2c(-c3nnc[nH]3)cc(-c3ccnc(C#N)c3)cc2n1-c1ccnc2c(F)ccc(Cl)c12 (single isomer, unassigned) [Example 124, 4-(1-(5-chloro-8-fluoroquinolin-4-yl)-2-methyl-4-(4H-1,2,4-triazol-3-yl)-1H-benzo[d]imidazol-6-yl)picolinonitrile]"
9,110,"Cc1nc2c(-c3nnc[nH]3)cc(-c3ccnc(C#N)c3)cc2n1-c1ccnc2cccc(Cl)c12 (single isomer, unassigned) [Example 125, 4-(1-(5-chloroquinolin-4-yl)-2-methyl-4-(4H-1,2,4-triazol-3-yl)-1H-benzo[d]imidazol-6-yl)picolinonitrile]"
10,780,"Cc1nc2c(-c3nnc[nH]3)cc(-c3ccnc(C#N)c3)cc2n1-c1ccnc2cccc(Cl)c12 (single isomer, unassigned) [Example 126, 4-(1-(5-chloroquinolin-4-yl)-2-methyl-4-(4H-1,2,4-triazol-3-yl)-1H-benzo[d]imidazol-6-yl)picolinonitrile]"
11,9,"Cc1nc2c(-c3nnc[nH]3)cc(-c3ccnc(C#N)c3)cc2n1-c1ccnc2c(F)cccc12 (single isomer, unassigned) [Example 127, 4-(1-(8-fluoroquinolin-4-yl)-2-methyl-4-(4H-1,2,4-triazol-3-yl)-1H-benzo[d]imidazol-6-yl)picolinonitrile]"
12,360,"Cc1nc2c(-c3nnc[nH]3)cc(-c3ccnc(C#N)c3)cc2n1-c1ccnc2c(F)cccc12 (single isomer, unassigned) [Example 128, 4-(1-(8-fluoroquinolin-4-yl)-2-methyl-4-(4H-1,2,4-triazol-3-yl)-1H-benzo[d]imidazol-6-yl)picolinonitrile]"
13,3,"Cc1nc2c(-c3nnc[nH]3)cc(-c3ccnc(C#N)c3)cc2n1-c1ccnc2c(Cl)cccc12 (single isomer, unassigned) [Example 129, 4-(1-(8-chloroquinolin-4-yl)-2-methyl-4-(4H-1,2,4-triazol-3-yl)-1H-benzo[d]imidazol-6-yl)picolinonitrile]"
14,57,"Cc1nc2c(-c3nnc[nH]3)cc(-c3ccnc(C#N)c3)cc2n1-c1ccnc2c(Cl)cccc12 (single isomer, unassigned) [Example 130, 4-(1-(8-chloroquinolin-4-yl)-2-methyl-4-(4H-1,2,4-triazol-3-yl)-1H-benzo[d]imidazol-6-yl)picolinonitrile]"

# Second part, the compound before the results:
row,SMILES,IC50 [nM]
1,"Cc1nc2c(-c3nnc[nH]3)cc(-c3ccnc(N)c3F)cc2n1-c1ccnc2c(F)ccc(F)c12 (atropisomer, axis not shown) [Example 106, 4-[3-(5,8-difluoroquinolin-4-yl)-2-methyl-7-(4H-1,2,4-triazol-3-yl)benzimidazol-5-yl]-3-fluoropyridin-2-amine]",3
2,"Cc1nc2c(-c3nnc[nH]3)cc(-c3ccnc(N)c3)cc2n1-c1ccnc2c(F)ccc(F)c12 (single isomer, unassigned) [Example 103, 4-(1-(5,8-difluoroquinolin-4-yl)-2-methyl-4-(4H-1,2,4-triazol-3-yl)-1H-benzo[d]imidazol-6-yl)pyridin-2-amine]",210
3,"Cc1nc2c(-c3nnc[nH]3)cc(-c3ccnc(N)c3)cc2n1-c1ccnc2c(F)ccc(F)c12 (single isomer, unassigned) [Example 104, 4-(1-(5,8-difluoroquinolin-4-yl)-2-methyl-4-(4H-1,2,4-triazol-3-yl)-1H-benzo[d]imidazol-6-yl)pyridin-2-amine]",9
4,"Cc1nc2c(-c3nnc[nH]3)cc(-c3ccnc(N)c3F)cc2n1-c1ccnc2c(F)ccc(F)c12 (single isomer, unassigned) [Example 105, 4-[3-(5,8-difluoroquinolin-4-yl)-2-methyl-7-(4H-1,2,4-triazol-3-yl)benzimidazol-5-yl]-3-fluoropyridin-2-amine]",1400
5,"Cc1nc2c(-c3nnc[nH]3)cc(-c3ccnc(N)c3F)cc2n1-c1c(Cl)cnc2c(F)cccc12 (single isomer, unassigned) [Example 107, 4-[3-(3-chloro-8-fluoroquinolin-4-yl)-2-methyl-7-(4H-1,2,4-triazol-3-yl)benzimidazol-5-yl]-3-fluoropyridin-2-amine]",29
6,"Cc1nc2c(-c3nnc[nH]3)cc(-c3ccnc(N)c3F)cc2n1-c1c(Cl)cnc2c(F)cccc12 (single isomer, unassigned) [Example 108, 4-[3-(3-chloro-8-fluoroquinolin-4-yl)-2-methyl-7-(4H-1,2,4-triazol-3-yl)benzimidazol-5-yl]-3-fluoropyridin-2-amine]",810
7,"CCc1nc2c(-c3nnc[nH]3)cc(-c3ccnc(N)c3F)cc2n1-c1ccnc2c(F)ccc(F)c12 (single isomer, unassigned) [Example 109, 4-[3-(5,8-difluoroquinolin-4-yl)-2-ethyl-7-(4H-1,2,4-triazol-3-yl)benzimidazol-5-yl]-3-fluoropyridin-2-amine]",2600
8,"CCc1nc2c(-c3nnc[nH]3)cc(-c3ccnc(N)c3F)cc2n1-c1ccnc2c(F)ccc(F)c12 (single isomer, unassigned) [Example 110, 4-[3-(5,8-difluoroquinolin-4-yl)-2-ethyl-7-(4H-1,2,4-triazol-3-yl)benzimidazol-5-yl]-3-fluoropyridin-2-amine]",2
9,"Cc1nnc(-c2cc(-c3ccnc(N)c3F)cc3c2nc(C)n3-c2ccnc3c(Cl)ccc(F)c23)[nH]1 (single isomer, unassigned) [Example 111, 4-[3-(8-chloro-5-fluoroquinolin-4-yl)-2-methyl-7-(5-methyl-4H-1,2,4-triazol-3-yl)benzimidazol-5-yl]-3-fluoropyridin-2-amine]",2500
10,"Cc1nnc(-c2cc(-c3ccnc(N)c3F)cc3c2nc(C)n3-c2ccnc3c(Cl)ccc(F)c23)[nH]1 (single isomer, unassigned) [Example 112, 4-[3-(8-chloro-5-fluoroquinolin-4-yl)-2-methyl-7-(5-methyl-4H-1,2,4-triazol-3-yl)benzimidazol-5-yl]-3-fluoropyridin-2-amine]",5
11,"Cc1nc2c(-c3nnc[nH]3)cc(-c3ccnc(C#N)c3)cc2n1-c1ccnc2c(F)ccc(F)c12 (single isomer, unassigned) [Example 113, 4-[3-(5,8-difluoroquinolin-4-yl)-2-methyl-7-(4H-1,2,4-triazol-3-yl)benzimidazol-5-yl]pyridine-2-carbonitrile]",2
12,"Cc1nc2c(-c3nnc[nH]3)cc(-c3ccnc(C#N)c3)cc2n1-c1ccnc2c(F)ccc(F)c12 (single isomer, unassigned) [Example 114, 4-[3-(5,8-difluoroquinolin-4-yl)-2-methyl-7-(4H-1,2,4-triazol-3-yl)benzimidazol-5-yl]pyridine-2-carbonitrile]",560
13,"Cc1nc2c(-c3nnc[nH]3)cc(-c3ccnc(C#N)c3)cc2n1-c1ccnc2cc(F)cc(F)c12 (single isomer, unassigned) [Example 115, 4-(1-(5,7-difluoroquinolin-4-yl)-2-methyl-4-(4H-1,2,4-triazol-3-yl)-1H-benzo[d]imidazol-6-yl)picolinonitrile]",3
14,"Cc1nc2c(-c3nnc[nH]3)cc(-c3ccnc(C#N)c3)cc2n1-c1ccnc2cc(F)cc(F)c12 (single isomer, unassigned) [Example 116, 4-(1-(5,7-difluoroquinolin-4-yl)-2-methyl-4-(4H-1,2,4-triazol-3-yl)-1H-benzo[d]imidazol-6-yl)picolinonitrile]",30
15,"Cc1nc2c(-c3nnc[nH]3)cc(-c3ccnc(N)c3F)cc2n1-c1ccnc2cc(F)cc(F)c12 (single isomer, unassigned) [Example 117]",4
